Laboratory results: patent US12077503B2, “Substituted cyclic amides and their use as herbicides” (FMC CORPORATION, priority 2015, dated 2024)

How the values were obtained:
Format in all cases: in vivo
[1] = test system: Kochia (Kochia scoparia); experiment: Test A preemergence; details: Bassia scoparia, pre-emergence, 240 h, preemergence, 0 to 100 scale where 0 is no effect and 100 is complete control, read-out: Kochia plant response rating; for pest or weed control at 125 g/ha: 125 g ai/ha, visual injury rating, approximately 10 d; for pest or weed control at 500 g/ha: 500 g ai/ha
Outline: (§1)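 Seeded soil received test chemicals as a preemergence directed spray, and seedlings at one to two leaves, 2–10 cm tall, received them postemergence, in a non-phytotoxic, surfactant-containing solvent mixture. Pots were held in a greenhouse for approximately 10 d, then rated for injury from 0, no effect, to 100, complete control.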

[2] = test system: barnyardgrass (Echinochloa crus-galli); experiment: Test A preemergence; details: Echinochloa crus-galli, pre-emergence, 240 h, preemergence, 0 to 100 scale where 0 is no effect and 100 is complete control, read-out: Barnyardgrass plant response rating; for pest or weed control at 125 g/ha: 125 g ai/ha, visual injury rating, approximately 10 d; for pest or weed control at 500 g/ha: 500 g ai/ha
Outline: as §1

[3] = test system: giant foxtail (Setaria faberii); experiment: Test A preemergence; details: Setaria faberi, pre-emergence, 240 h, preemergence, 0 to 100 scale where 0 is no effect and 100 is complete control, read-out: Foxtail, Giant plant response rating; for pest or weed control at 125 g/ha: 125 g ai/ha, visual injury rating, approximately 10 d; for pest or weed control at 500 g/ha: 500 g ai/ha
Outline: as §1

[4] = test system: ragweed (common ragweed, Ambrosia elatior); experiment: Test A preemergence; details: Ambrosia artemisiifolia, pre-emergence, 240 h, preemergence, 0 to 100 scale where 0 is no effect and 100 is complete control, read-out: Ragweed plant response rating; for pest or weed control at 125 g/ha: 125 g ai/ha, visual injury rating, approximately 10 d; for pest or weed control at 500 g/ha: 500 g ai/ha
Outline: as §1

[5] = test system: ryegrass, Italian (Italian ryegrass, Lolium multiflorum); experiment: Test A preemergence; details: Lolium multiflorum, pre-emergence, 240 h, preemergence, 0 to 100 scale where 0 is no effect and 100 is complete control, read-out: Ryegrass, Italian plant response rating; for pest or weed control at 125 g/ha: 125 g ai/ha, visual injury rating, approximately 10 d; for pest or weed control at 500 g/ha: 500 g ai/ha
Outline: as §1

[6] = test system: Galium (catchweed bedstraw, Galium aparine); experiment: Test A postemergence; details: Galium, post-emergence, 240 h, postemergence; for pest or weed control at 125 g/ha: 125 g ai/ha, visual injury vs untreated controls after approx. 10 d, 0 = no effect, 100 = complete control, read-out: Galium plant response rating (0 to 100 scale); for pest or weed control at 500 g/ha: 500 g ai/ha, 0 to 100 scale, 0 is no effect, 100 is complete control, read-out: Galium plant response rating
Outline: as §1

[7] = test system: Kochia (Kochia scoparia); experiment: Test A postemergence; details: Bassia scoparia, post-emergence, 240 h, postemergence; for pest or weed control at 125 g/ha: 125 g ai/ha, visual injury vs untreated controls after approx. 10 d, 0 = no effect, 100 = complete control, read-out: Kochia plant response rating (0 to 100 scale); for pest or weed control at 500 g/ha: 500 g ai/ha, 0 to 100 scale, 0 is no effect, 100 is complete control, read-out: Kochia plant response rating
Outline: as §1

[8] = test system: barnyardgrass (Echinochloa crus-galli); experiment: Test A postemergence; details: Echinochloa crus-galli, post-emergence, 240 h, postemergence; for pest or weed control at 125 g/ha: 125 g ai/ha, visual injury vs untreated controls after approx. 10 d, 0 = no effect, 100 = complete control, read-out: Barnyardgrass plant response rating (0 to 100 scale); for pest or weed control at 500 g/ha: 500 g ai/ha, 0 to 100 scale, 0 is no effect, 100 is complete control, read-out: Barnyardgrass plant response rating
Outline: as §1

[9] = test system: blackgrass (Alopecurus myosuroides); experiment: Test A postemergence; details: Alopecurus myosuroides, post-emergence, 240 h, postemergence; for pest or weed control at 125 g/ha: 125 g ai/ha, visual injury vs untreated controls after approx. 10 d, 0 = no effect, 100 = complete control, read-out: Blackgrass plant response rating (0 to 100 scale); for pest or weed control at 500 g/ha: 500 g ai/ha, 0 to 100 scale, 0 is no effect, 100 is complete control, read-out: Blackgrass plant response rating
Outline: as §1

[10] = test system: corn (Zea mays); experiment: Test A postemergence; details: Zea mays, post-emergence, 240 h, postemergence; for plant injury at 125 g/ha: 125 g ai/ha, visual injury vs untreated controls after approx. 10 d, 0 = no effect, 100 = complete control, read-out: Corn plant response rating (0 to 100 scale); for plant injury at 500 g/ha: 500 g ai/ha, 0 to 100 scale, 0 is no effect, 100 is complete control, read-out: Corn plant response rating
Outline: as §1

[11] = test system: giant foxtail (Setaria faberii); experiment: Test A postemergence; details: Setaria faberi, post-emergence, 240 h, postemergence; for pest or weed control at 125 g/ha: 125 g ai/ha, visual injury vs untreated controls after approx. 10 d, 0 = no effect, 100 = complete control, read-out: Foxtail, Giant plant response rating (0 to 100 scale); for pest or weed control at 500 g/ha: 500 g ai/ha, 0 to 100 scale, 0 is no effect, 100 is complete control, read-out: Foxtail, Giant plant response rating
Outline: as §1

[12] = test system: pigweed (Amaranthus retroflexus); experiment: Test A postemergence; details: Amaranthus retroflexus, post-emergence, 240 h, postemergence; for pest or weed control at 125 g/ha: 125 g ai/ha, visual injury vs untreated controls after approx. 10 d, 0 = no effect, 100 = complete control, read-out: Pigweed plant response rating (0 to 100 scale); for pest or weed control at 500 g/ha: 500 g ai/ha, 0 to 100 scale, 0 is no effect, 100 is complete control, read-out: Pigweed plant response rating
Outline: as §1

[13] = test system: ragweed (common ragweed, Ambrosia elatior); experiment: Test A postemergence; details: Ambrosia artemisiifolia, post-emergence, 240 h, postemergence; for pest or weed control at 125 g/ha: 125 g ai/ha, visual injury vs untreated controls after approx. 10 d, 0 = no effect, 100 = complete control, read-out: Ragweed plant response rating (0 to 100 scale); for pest or weed control at 500 g/ha: 500 g ai/ha, 0 to 100 scale, 0 is no effect, 100 is complete control, read-out: Ragweed plant response rating
Outline: as §1

[14] = test system: ryegrass, Italian (Italian ryegrass, Lolium multiflorum); experiment: Test A postemergence; details: Lolium multiflorum, post-emergence, 240 h, postemergence; for pest or weed control at 125 g/ha: 125 g ai/ha, visual injury vs untreated controls after approx. 10 d, 0 = no effect, 100 = complete control, read-out: Ryegrass, Italian plant response rating (0 to 100 scale); for pest or weed control at 500 g/ha: 500 g ai/ha, 0 to 100 scale, 0 is no effect, 100 is complete control, read-out: Ryegrass, Italian plant response rating
Outline: as §1

[15] = test system: wheat (Triticum aestivum); experiment: Test A postemergence; details: Triticum aestivum, post-emergence, 240 h, postemergence; for plant injury at 125 g/ha: 125 g ai/ha, visual injury vs untreated controls after approx. 10 d, 0 = no effect, 100 = complete control, read-out: Wheat plant response rating (0 to 100 scale)
Outline: as §1

| Compound | pest or weed control at 125 g/ha [1] [%] | pest or weed control at 500 g/ha [1] [%] | pest or weed control at 125 g/ha [2] [%] | pest or weed control at 500 g/ha [2] [%] | pest or weed control at 125 g/ha [3] [%] | pest or weed control at 500 g/ha [3] [%] | pest or weed control at 125 g/ha [4] [%] | pest or weed control at 500 g/ha [4] [%] | pest or weed control at 125 g/ha [5] [%] | pest or weed control at 500 g/ha [5] [%] | pest or weed control at 125 g/ha [6] [%] | pest or weed control at 500 g/ha [6] [%] | pest or weed control at 125 g/ha [7] [%] | pest or weed control at 500 g/ha [7] [%] | pest or weed control at 125 g/ha [8] [%] | pest or weed control at 500 g/ha [8] [%] | pest or weed control at 125 g/ha [9] [%] | pest or weed control at 500 g/ha [9] [%] | plant injury at 125 g/ha [10] [%] | plant injury at 500 g/ha [10] [%] | further results |
| --- | --- | --- | --- | --- | --- | --- | --- | --- | --- | --- | --- | --- | --- | --- | --- | --- | --- | --- | --- | --- | --- |
| CN1C[C@H](c2cc(F)cc(C(F)(F)F)c2)[C@@H](C(=O)Nc2cccc(F)c2F)C1=O [Compound 1214] | 50 | 60 | 90 | 90 | 90 | 90 | 0 | 70 | 60 | 90 | 60 | 60 | 60 | 80 | 90 | 90 | 80 | 80 | 80 | 90 | pest or weed control at 125 g/ha [11]: 90%; pest or weed control at 500 g/ha [11]: 90%; pest or weed control at 125 g/ha [12]: 30%; pest or weed control at 500 g/ha [12]: 60%; pest or weed control at 125 g/ha [13]: 0%; pest or weed control at 500 g/ha [13]: 30%; pest or weed control at 125 g/ha [14]: 60%; pest or weed control at 500 g/ha [14]: 80%; plant injury at 125 g/ha [15]: 70%; plant injury at 500 g/ha ([15]; 500 g ai/ha, 0 to 100 scale, 0 is no effect, 100 is complete control, read-out: Wheat plant response rating): 80% |
| CN1C[C@H](c2ccc(F)c(Br)c2)[C@@H](C(=O)Nc2cccc(F)c2F)C1=O [Compound 1234] | 70 | 80 | 100 | 100 | 100 | 100 | 40 | 60 | 40 | 80 | 50 | 60 | 40 | 50 | 90 | 90 | 30 | 60 | 80 | 100 | pest or weed control at 125 g/ha [11]: 80%; pest or weed control at 500 g/ha [11]: 90%; pest or weed control at 125 g/ha [12]: 20%; pest or weed control at 500 g/ha [12]: 50%; pest or weed control at 125 g/ha [13]: 30%; pest or weed control at 500 g/ha [13]: 30%; pest or weed control at 125 g/ha [14]: 40%; pest or weed control at 500 g/ha [14]: 70%; plant injury at 125 g/ha [15]: 40% |
